Reference: patent publication US5824320A, “Cosmetic or pharmaceutical compositions containing, as active ingredient, mangiferine or its derivatives, in pure form or in plant extracts” (Laboratories de Biologie Vegetale Yves Rocher, priority 1994, dated 1998)
pIC50: −log10 of the molar value.

Columns and labels:
[1] = UV light absorption spectrum; assay type: physicochemical
[2] = Anti-free radical activity (NADH/PMS superoxide, NBT reduction); assay type: biochemical; details: 1% solution in propylene glycol vs 0.1% rutin
Source text: Anti-Free Radical Activity (determined according to V. Ponti, M. U. Dianzani, K. Cheeseman and T. F. Slater, Cehm--Biol interaction, 23 (1978) 281-291).
Superoxide anions are generated by the reaction of NADH (Nicotinamide Adenine Dinucleotide in a reduced form) with PMS (Phenazine Methosulphate). The superoxide anions reduce NBT (Nitro Blue Tetrazolium) to diformazan which is violet-blue in colour.
The appearance of reduced NBT is monitored over time using a spectrophotometer. The results are represented in FIG. 3a.
The anti-free radical activity of the extracts is expressed as rutin equivalent for a 50% inhibition.
Anti-Free Radical Activity Determined in vitro (V. Ponti, M. U. Dianzani, K. Cheeseman and T. F. Slater, Chem. Biol. interaction, 23, 281-291, 1978).
The anti-free radical activity of the extracts is expressed in rutin equivalent for a 50% inhibition.

[3] = target: Clostridium histolycum collagenase (Hathewaya histolytica, UniProt Q46085); test: biochemical
Chain of Clostridium histolycum collagenase (Q46085 41-1021 limits assumed): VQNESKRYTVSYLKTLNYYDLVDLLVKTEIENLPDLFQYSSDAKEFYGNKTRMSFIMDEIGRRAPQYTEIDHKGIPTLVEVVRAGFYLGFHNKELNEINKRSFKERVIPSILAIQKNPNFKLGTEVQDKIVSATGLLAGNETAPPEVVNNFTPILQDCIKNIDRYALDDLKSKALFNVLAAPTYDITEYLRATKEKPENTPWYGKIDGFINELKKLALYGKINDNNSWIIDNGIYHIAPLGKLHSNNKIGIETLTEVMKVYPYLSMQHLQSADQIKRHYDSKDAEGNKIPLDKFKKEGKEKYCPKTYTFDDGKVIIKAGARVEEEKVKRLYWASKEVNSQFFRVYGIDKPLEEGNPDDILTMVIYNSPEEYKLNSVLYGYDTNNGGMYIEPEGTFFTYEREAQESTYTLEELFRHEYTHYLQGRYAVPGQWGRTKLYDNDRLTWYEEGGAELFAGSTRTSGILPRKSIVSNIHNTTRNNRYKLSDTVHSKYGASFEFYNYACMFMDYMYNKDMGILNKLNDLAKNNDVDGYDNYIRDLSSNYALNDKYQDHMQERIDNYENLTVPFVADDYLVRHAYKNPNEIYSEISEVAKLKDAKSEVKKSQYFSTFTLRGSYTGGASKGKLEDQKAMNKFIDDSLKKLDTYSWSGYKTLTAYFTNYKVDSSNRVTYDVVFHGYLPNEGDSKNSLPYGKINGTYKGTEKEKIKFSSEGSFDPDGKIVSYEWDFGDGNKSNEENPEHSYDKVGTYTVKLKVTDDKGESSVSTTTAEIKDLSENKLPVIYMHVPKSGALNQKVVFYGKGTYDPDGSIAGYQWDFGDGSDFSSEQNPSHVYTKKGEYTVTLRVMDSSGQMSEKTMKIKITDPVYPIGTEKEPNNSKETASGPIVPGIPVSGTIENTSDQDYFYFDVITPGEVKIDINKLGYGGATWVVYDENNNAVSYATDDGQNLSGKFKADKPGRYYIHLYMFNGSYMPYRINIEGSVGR

Solubility = assay type: physicochemical
pancreatic elastase = pancreatic elastase (Sus scrofa, UniProt P00772); test: Anti-elastase activity (MeO Suc-Ala-Ala-Pro-Val-pNa substrate)
Chain of pancreatic elastase (P00772 27-266): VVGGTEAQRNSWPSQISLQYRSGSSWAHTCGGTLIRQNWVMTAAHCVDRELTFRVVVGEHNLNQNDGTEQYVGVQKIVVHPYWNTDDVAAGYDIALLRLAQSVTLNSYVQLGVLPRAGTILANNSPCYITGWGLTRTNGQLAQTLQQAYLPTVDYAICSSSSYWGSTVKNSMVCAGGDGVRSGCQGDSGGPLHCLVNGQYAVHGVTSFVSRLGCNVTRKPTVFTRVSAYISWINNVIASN

[4] = Photostability under continuous xenon lamp radiation (half-life time of absorption); details: aqueous solution, compared with benzophenone 4 under the same conditions
hyaluronidase = test: Anti-hyaluronidase activity (N-acetylglucosamine liberated from hyaluronic acid); assay type: biochemical; details: Mangifera extract 1% dry extract; heparin Sigma 10 USP/ml
Procedure: Anti-Hyaluronidase Activity (determined according to Jose L. Reissig, Jack L. Stominger and Luis F. Leloior, 05.12.1955).
The N-acetylglucosamine liberated after 45 minutes during the reaction of the hyaluronidase with hyaluronic acid is measured using a spectrophotometer. A process for reducing the anhydrous sugars, which in acid medium are converted to furan derivatives, is used; the said sugars react with para-dimethylaminobenzaldehyde to form a coloured complex.
The activity is expressed in μg of N-acetylglucosamine formed per minute.
The anti-hyaluronidase activity is expressed as a quantity of extract for obtaining 50% inhibition.
Anti-Hyaluronidase Activity Determined in vitro (Jose L. Reissig, Jack L. Strominger and Luis F. Leloir, J. Biol.--Chem. 217, 960-966, 1953).
The anti-hyaluronidase activity is expressed as quantity of extract for obtaining 50% inhibition. The results are plotted in Figure 5b.

Compound | UV absorption maximum corresponding to the zone of UVA rays ([1]; UVA zone) | UV absorption maximum corresponding to UVB rays ([1]; UVB zone) | phototoxicity (Phototoxicity check) | anti-free radical activity relative to rutin reference solution [2] [times] | pIC50 [3] | solubility in alkaline liquids (Solubility; alkaline liquids) | solubility in cold water (Solubility; cold water) | pIC50 (pancreatic elastase) | photostability (resistance to irradiation, half-life time) [4] | half-inhibition volume IV50 (anti-hyaluronidase) (hyaluronidase) [µL]
O=c1c2cc(O)c(O)cc2oc2cc(O)c([C@@H]3O[C@H](CO)[C@@H](O)[C@H](O)[C@H]3O)c(O)c12 [mangiferine, C-glucoside of 1,3,6,7-tetrahydroxy xanthone] | around 360 nm | around 320 nm | absence of phototoxicity | 4 | ~3.93 | soluble | very sparingly soluble | ~4.63 | equally resistant to irradiation, with a very similar half-life time | –
heparin | – | – | – | – | – | – | – | – | – | 380
